Measured values published in patent US20080152589A1, “Diagnostics and Therapeutics of Neurological Disease” (priority 2006, published 2008).

How the values were obtained:
[1] = biological target: endogenous Tau of COS-7 cells; test: cell-based or functional assay
[2] = self-administered questionnaire on lithium-induced side-effects, stratified by GSK3B and MAPT haplotype; type: in vivo, human; details: for Odds Ratio, hand tremor present vs absent (pooled High GSKΔexon9 and Low GSKΔexon9+11 haplotypes vs others): lithium treatment; for mean overall side-effect score (SE score): patients administered lithium, 24 items, maximum total score 96
Experimental: Participants (n=84) suffering from a neurological disease who had been administered lithium as a therapeutic were assessed for the prevalence and pattern of lithium-induced side-effects using a self-administered questionnaire. This questionnaire was a modified version of the data collection form from a clinical trial, asking participants to rate 24 side-effect items as ‘Not present’, ‘Mild’, ‘Moderate’, ‘Severe’ and ‘Very Severe’. The 24 items listed include: nausea, vomiting, diarrhea, constipation, weight gain, weight loss, dizziness or light-headedness, blurred vision, hand tremor, muscle weakness, slurred speech, lack of coordination or unsteady gait, poor concentration mental slowing or confusion, forgetfulness or difficulty with memory/recall, drowsiness or sleepiness, worsening mood symptoms, skin rash, hair loss, thirst, dry mouth, metallic taste in mouth, loss of ability to taste food, need to pass urine much more frequently or more urgently, urinary incontinence. An overall side-effect score (SE score) was calculated for each patient based on the above 24 items and their respective grading. A score of zero was given for an absent side effect and increased to a score of 4 for a very severe side effect to give a maximum total score of 96 for each patient.
Each individual was genotyped and classified as having 0, 1 or 2 copies of the disease ‘risk’ GSK3B haplotypes (A-T-C, T-C-C and A-C-T) based on the three functional polymorphisms rs375557, rs334558 and rs6438552. In the subset of patients having a GSK-3B ‘risk’ haplotype and at least one H2 MAPT haplotype, a lower SE score was observed (12.3±2.2) compared to patients with no ‘risk’ haplotype (14.6±2.0).
The relationship between the ‘risk’ haplotypes in GSK3B and common side effect of lithium therapy, hand tremor, was then examined, the results of which are shown in Table 8. […] This information is pertinent, because lithium, which is a therapeutic agent for a number of disorders including bipolar affective disorders and Alzheimer's disease, has significant side effects. Accordingly, assays that detect the presence of a GSK-3B ‘risk’ haplotype optionally combined with detection of a MAPT H2 haplotype are useful for determining subjects likely to respond to treatment and/or that are unlikely to develop a side-effect as a result of treatment.

levels of Tau [pSer396] by ELISA in transfected COS-7 cells, compared with the other GSK-3β cDNAs [1] [fold]	Compound	Odds Ratio, hand tremor present vs absent (pooled High GSKΔexon9 and Low GSKΔexon9+11 haplotypes vs others) ([2]; MAPT H1/H1)	Odds Ratio, hand tremor present vs absent (pooled High GSKΔexon9 and Low GSKΔexon9+11 haplotypes vs others) ([2]; MAPT H1/H2 + H2/H2 (at least one H2 haplotype))	Odds Ratio, hand tremor present vs absent (pooled High GSKΔexon9 and Low GSKΔexon9+11 haplotypes vs others) ([2]; all MAPT haplotypes)	mean overall side-effect score (SE score) ([2]; GSK-3B 'risk' haplotype and at least one H2 MAPT haplotype)	mean overall side-effect score (SE score) ([2]; no 'risk' haplotype)
2.5	GSKΔexon9+11 (GSK-3β splice isoform lacking exons 9 and 11) (from UniProt P49841 1-420) (enzyme)					
	[Li] [lithium]	1.32	0.24	0.57	12.3±2.2	14.6±2.0
